How the values were obtained:
Xaa-Pro aminopeptidase 1 = Xaa-Pro aminopeptidase 1 (Homo sapiens, UniProt Q9NQW7); assay: Inhibition of amino peptidase P
Prolyl endopeptidase FAP = biological target: T1, Prolyl endopeptidase FAP (Homo sapiens, UniProt Q12884); assay: Inhibition of FAP
T1 sequence (Q12884 whole entry): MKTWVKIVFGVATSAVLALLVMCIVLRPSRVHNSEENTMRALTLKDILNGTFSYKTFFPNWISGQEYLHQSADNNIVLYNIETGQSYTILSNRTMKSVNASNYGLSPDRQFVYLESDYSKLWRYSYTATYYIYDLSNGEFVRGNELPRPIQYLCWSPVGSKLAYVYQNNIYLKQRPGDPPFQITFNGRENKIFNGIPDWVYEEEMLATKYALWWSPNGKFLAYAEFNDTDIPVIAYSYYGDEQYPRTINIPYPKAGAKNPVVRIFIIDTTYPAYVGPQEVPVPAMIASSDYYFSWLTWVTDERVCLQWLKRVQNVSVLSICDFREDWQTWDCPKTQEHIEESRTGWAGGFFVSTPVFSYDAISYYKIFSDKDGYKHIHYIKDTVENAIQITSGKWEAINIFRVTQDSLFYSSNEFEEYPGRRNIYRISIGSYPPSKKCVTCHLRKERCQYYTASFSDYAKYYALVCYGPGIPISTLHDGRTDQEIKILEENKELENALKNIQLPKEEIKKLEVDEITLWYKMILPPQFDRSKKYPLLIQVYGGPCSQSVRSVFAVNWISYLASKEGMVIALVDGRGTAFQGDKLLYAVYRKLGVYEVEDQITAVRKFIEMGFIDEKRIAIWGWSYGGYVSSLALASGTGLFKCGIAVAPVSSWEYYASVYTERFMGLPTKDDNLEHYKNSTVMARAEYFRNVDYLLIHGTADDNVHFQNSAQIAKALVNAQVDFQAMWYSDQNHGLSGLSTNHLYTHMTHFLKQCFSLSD

Dipeptidyl peptidase 2 = Dipeptidyl peptidase 2 (Homo sapiens, UniProt Q9UHL4); assay: Inhibition of QPP
Dipeptidyl peptidase 4 = Dipeptidyl peptidase 4 (Homo sapiens, UniProt P27487)
Dipeptidyl peptidase 8 = Dipeptidyl peptidase 8 (Homo sapiens, UniProt Q6V1X1); assay: Inhibition of DPP8
Dipeptidyl peptidase 9 = Dipeptidyl peptidase 9 (Homo sapiens, UniProt Q86TI2); assay: Inhibition of DPP9
Xaa-Pro dipeptidase = biological target: T2, Xaa-Pro dipeptidase (Homo sapiens, UniProt P12955); assay: Inhibition of prolidase
T2 sequence (P12955 whole entry): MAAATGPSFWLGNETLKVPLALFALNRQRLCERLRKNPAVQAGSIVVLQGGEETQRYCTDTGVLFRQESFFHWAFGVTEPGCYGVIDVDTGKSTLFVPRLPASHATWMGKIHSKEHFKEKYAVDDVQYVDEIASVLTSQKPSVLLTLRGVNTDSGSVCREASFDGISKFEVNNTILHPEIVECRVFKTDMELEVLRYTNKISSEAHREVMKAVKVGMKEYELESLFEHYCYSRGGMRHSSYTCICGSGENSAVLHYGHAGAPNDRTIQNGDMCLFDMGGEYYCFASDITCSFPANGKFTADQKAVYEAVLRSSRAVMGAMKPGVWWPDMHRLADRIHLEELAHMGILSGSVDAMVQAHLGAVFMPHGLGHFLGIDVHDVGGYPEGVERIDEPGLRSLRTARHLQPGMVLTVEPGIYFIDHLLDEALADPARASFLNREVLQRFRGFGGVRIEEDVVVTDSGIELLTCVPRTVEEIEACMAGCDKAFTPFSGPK

Xaa-Pro aminopeptidase 1, sequence (Q9NQW7 whole entry): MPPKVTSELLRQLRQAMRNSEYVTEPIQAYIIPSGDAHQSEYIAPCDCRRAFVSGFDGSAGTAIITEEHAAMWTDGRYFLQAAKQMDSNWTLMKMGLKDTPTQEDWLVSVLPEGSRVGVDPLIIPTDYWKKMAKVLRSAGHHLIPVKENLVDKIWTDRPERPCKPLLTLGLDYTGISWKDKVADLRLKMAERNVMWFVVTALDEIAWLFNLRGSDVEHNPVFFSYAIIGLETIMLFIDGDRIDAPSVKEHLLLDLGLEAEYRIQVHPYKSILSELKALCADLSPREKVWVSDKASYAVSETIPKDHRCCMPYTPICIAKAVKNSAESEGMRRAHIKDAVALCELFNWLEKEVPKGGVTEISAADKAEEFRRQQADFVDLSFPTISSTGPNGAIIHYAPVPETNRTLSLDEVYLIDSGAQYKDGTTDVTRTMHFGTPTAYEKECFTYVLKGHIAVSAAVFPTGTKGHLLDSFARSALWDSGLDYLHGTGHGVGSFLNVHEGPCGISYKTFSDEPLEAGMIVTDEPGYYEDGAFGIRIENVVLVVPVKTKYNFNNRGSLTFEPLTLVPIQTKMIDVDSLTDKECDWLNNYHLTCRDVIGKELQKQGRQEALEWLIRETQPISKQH
Dipeptidyl peptidase 9, sequence (Q86TI2 whole entry): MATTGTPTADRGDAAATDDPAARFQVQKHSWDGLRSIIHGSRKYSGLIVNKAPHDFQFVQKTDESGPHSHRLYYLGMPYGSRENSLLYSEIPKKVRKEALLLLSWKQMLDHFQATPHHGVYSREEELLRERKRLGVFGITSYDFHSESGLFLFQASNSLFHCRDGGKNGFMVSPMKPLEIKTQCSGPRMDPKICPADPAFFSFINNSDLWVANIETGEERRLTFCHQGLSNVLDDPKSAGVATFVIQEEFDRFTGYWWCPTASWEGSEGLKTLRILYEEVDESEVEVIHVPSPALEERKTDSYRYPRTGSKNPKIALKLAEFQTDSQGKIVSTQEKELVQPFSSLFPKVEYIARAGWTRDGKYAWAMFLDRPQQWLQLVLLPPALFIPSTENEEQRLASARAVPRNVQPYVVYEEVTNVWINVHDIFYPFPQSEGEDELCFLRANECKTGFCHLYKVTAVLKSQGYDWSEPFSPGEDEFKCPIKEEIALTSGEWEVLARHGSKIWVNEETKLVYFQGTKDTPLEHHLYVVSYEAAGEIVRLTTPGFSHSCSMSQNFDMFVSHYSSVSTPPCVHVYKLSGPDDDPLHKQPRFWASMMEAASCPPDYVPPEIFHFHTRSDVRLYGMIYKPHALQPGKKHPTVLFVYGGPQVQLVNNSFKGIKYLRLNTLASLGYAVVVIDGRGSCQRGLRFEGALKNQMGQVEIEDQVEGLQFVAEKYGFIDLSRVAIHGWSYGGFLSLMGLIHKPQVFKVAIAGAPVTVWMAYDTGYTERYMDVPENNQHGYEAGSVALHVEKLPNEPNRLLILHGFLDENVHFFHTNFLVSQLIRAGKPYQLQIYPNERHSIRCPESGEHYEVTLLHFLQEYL
Dipeptidyl peptidase 8, sequence (Q6V1X1 whole entry): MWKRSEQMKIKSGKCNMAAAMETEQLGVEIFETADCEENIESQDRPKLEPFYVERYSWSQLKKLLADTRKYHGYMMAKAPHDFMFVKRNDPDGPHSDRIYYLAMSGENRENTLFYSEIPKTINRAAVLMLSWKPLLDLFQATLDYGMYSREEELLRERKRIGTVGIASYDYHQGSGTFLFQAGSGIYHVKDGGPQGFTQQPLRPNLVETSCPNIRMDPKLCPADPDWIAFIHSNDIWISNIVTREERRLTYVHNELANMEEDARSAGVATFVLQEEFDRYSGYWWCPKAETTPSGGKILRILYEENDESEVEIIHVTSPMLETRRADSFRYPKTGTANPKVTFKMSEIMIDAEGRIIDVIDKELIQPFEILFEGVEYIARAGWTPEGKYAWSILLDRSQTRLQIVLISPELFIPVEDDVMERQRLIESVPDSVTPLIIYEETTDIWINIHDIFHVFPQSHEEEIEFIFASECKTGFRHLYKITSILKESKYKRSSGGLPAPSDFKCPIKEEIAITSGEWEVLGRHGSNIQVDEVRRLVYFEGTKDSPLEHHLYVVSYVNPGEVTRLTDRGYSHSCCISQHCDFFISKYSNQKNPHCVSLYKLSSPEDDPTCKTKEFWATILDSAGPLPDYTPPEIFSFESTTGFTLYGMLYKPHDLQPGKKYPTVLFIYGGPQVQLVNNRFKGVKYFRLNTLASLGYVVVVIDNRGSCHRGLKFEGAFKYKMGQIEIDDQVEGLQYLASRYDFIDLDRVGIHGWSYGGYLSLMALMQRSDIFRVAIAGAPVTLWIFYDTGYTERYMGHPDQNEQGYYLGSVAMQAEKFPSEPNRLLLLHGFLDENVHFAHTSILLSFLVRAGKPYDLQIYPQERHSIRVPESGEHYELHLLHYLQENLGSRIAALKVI
Dipeptidyl peptidase 4, sequence (P27487 whole entry): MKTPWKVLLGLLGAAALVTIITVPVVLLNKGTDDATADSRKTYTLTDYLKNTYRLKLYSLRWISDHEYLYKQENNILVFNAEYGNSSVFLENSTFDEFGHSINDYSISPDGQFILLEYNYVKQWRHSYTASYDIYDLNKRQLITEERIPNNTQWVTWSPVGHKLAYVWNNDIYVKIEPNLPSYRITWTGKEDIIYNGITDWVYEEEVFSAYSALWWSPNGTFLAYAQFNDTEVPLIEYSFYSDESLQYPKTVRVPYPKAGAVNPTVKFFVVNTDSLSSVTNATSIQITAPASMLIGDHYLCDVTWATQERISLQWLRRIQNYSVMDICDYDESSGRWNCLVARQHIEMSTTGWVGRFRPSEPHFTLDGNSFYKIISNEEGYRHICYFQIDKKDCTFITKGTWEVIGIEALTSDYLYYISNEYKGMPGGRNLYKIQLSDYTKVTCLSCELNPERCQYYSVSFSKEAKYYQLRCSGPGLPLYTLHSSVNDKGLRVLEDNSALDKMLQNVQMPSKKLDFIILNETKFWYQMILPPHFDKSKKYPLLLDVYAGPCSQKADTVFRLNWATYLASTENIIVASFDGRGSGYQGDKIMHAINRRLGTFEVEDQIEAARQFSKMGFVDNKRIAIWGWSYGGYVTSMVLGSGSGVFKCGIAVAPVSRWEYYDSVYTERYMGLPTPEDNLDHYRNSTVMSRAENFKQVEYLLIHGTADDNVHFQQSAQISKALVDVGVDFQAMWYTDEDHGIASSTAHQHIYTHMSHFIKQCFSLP

Structure (SMILES)	IC50 (Xaa-Pro aminopeptidase 1) [µM]	IC50 (Prolyl endopeptidase FAP) [µM]	IC50 (Dipeptidyl peptidase 2) [µM]	IC50 (Dipeptidyl peptidase 4) [µM]	IC50 (Dipeptidyl peptidase 8) [µM]	IC50 (Dipeptidyl peptidase 9) [µM]	IC50 (Xaa-Pro dipeptidase) [µM]
N[C@@H](CC(=O)N1CCn2c(nnc2C(F)(F)F)C1Cc1ccccc1)Cc1cc(F)c(F)cc1F (stereo in doubt; 42b)	> 10	> 10	52	0.00066	0.622	24	> 10
COc1ccc(CC2c3nnc(C(F)(F)F)n3CCN2C(=O)C[C@H](N)Cc2cc(F)c(F)cc2F)cc1 (stereo in doubt; 43a)	> 10	> 10	> 100	0.32	> 100	> 100	> 10
N[C@@H](CC(=O)N1CCNC[C@H]1Cc1ccccc1)Cc1ccccc1F	> 10						> 10
CC1(C)c2nnc(C(F)(F)F)n2CCN1C(=O)C[C@H](N)Cc1cc(F)c(F)cc1F	> 10	> 10	23	0.175	6	20	> 10
CC1c2nnc(C(F)(F)F)n2C(C)CN1C(=O)C[C@H](N)Cc1cc(F)c(F)cc1F (stereo in doubt; 16a)	> 10	> 10	> 100	0.1	> 100	> 100	> 10
COc1ccc(CC2c3nnc(C(F)(F)F)n3CCN2C(=O)C[C@H](N)Cc2cc(F)c(F)cc2F)cc1 (stereo in doubt; 43b)	> 10	> 10	57	0.00043	0.367	18	> 10
N[C@@H](CC(=O)N1CCn2c(nnc2C(F)(F)F)C1Cc1ccccc1F)Cc1cc(F)c(F)cc1F (stereo in doubt; 45a)	> 10	> 10	76	0.131	> 100	> 100	> 10
N[C@@H](CC(=O)N1CCn2c(nnc2C(F)(F)F)C1Cc1ccccc1C(F)(F)F)Cc1cc(F)c(F)cc1F (stereo in doubt; 44b)	> 10	> 10	41	0.00031	8	> 100	> 10
C[C@H]1c2nnc(C(F)(F)F)n2[C@@H](C)CN1C(=O)C[C@H](N)Cc1cc(F)c(F)cc1F	> 10	> 10	> 100	0.209	> 100	> 100	> 10
CN(C)C(=O)CC1c2nnc(C(F)(F)F)n2CCN1C(=O)C[C@H](N)Cc1cc(F)c(F)cc1F (stereo in doubt; 41a)	> 10	> 10	> 100	0.377	> 100	> 100	> 10
CC1c2nnc(C(F)(F)F)n2C(C)CN1C(=O)C[C@H](N)Cc1cc(F)c(F)cc1F (stereo in doubt; 16d)	> 10	> 10	> 100	0.011	44	62	> 10
N[C@@H](CC(=O)N1CCn2c(nnc2C(F)(F)F)C1Cc1ccccc1C(F)(F)F)Cc1cc(F)c(F)cc1F (stereo in doubt; 44a)	> 10	> 10	83	0.438	> 100	> 100	> 10
N[C@@H](CC(=O)N1CCn2c(nnc2C(F)(F)F)C1C(O)c1ccc(F)cc1)Cc1cc(F)c(F)cc1F (stereo in doubt; 47a)	> 10	> 10	48	0.43	> 100	> 100	> 10
C=CCC1c2nnc(C(F)(F)F)n2CCN1C(=O)C[C@H](N)Cc1cc(F)c(F)cc1F (stereo in doubt; 40a)	> 10	> 10	33	0.0015	3	41	> 10
N[C@@H](CC(=O)N1CCn2c(nnc2C(F)(F)F)C1Cc1cc(C(F)(F)F)cc(C(F)(F)F)c1)Cc1cc(F)c(F)cc1F (stereo in doubt; 48a)	> 10	> 10	> 100	0.587	> 100	> 100	> 10
N[C@@H](CC(=O)N1CCn2c(nnc2C(F)(F)F)C1C(O)c1ccc(F)cc1)Cc1cc(F)c(F)cc1F (stereo in doubt; 47d)	> 10	> 10	41	0.0005	0.628	> 100	> 10

The next lines start with the values.

IC50 (Xaa-Pro aminopeptidase 1) [µM]	IC50 (Prolyl endopeptidase FAP) [µM]	IC50 (Dipeptidyl peptidase 2) [µM]	IC50 (Dipeptidyl peptidase 4) [µM]	IC50 (Dipeptidyl peptidase 8) [µM]	IC50 (Dipeptidyl peptidase 9) [µM]	IC50 (Xaa-Pro dipeptidase) [µM]	Structure (SMILES)
> 10	> 10	30	0.123	> 100	> 100	> 10	N[C@@H](CC(=O)N1CCn2c(nnc2C(F)(F)F)C1CC(F)(F)F)Cc1cc(F)c(F)cc1F (stereo in doubt; 39a)
> 10	> 10	> 100	0.023	23	23	> 10	C[C@H]1CN(C(=O)C[C@H](N)Cc2cc(F)c(F)cc2F)Cc2ccc(C(F)(F)F)n21
> 10	> 10	> 100	0.113	> 100	> 100	> 10	CCC1c2nnc(C(F)(F)F)n2CCN1C(=O)C[C@H](N)Cc1cc(F)c(F)cc1F (stereo in doubt; 38a)
> 10	> 10	60	0.0057	1.6	26	> 10	N[C@@H](CC(=O)N1CCn2c(nnc2C(F)(F)F)C1CC(F)(F)F)Cc1cc(F)c(F)cc1F (stereo in doubt; 39b)
> 10	> 10	> 100	0.132	> 100	> 100	> 10	N[C@@H](CC(=O)N1CCn2c(nnc2C(F)(F)F)C1Cc1ccccn1)Cc1cc(F)c(F)cc1F (stereo in doubt; 49a)
> 10	> 10	> 100	0.042	75	> 100	> 10	C[C@@H]1Cn2c(nnc2C(F)(F)F)CN1C(=O)C[C@H](N)Cc1cc(F)c(F)cc1F
> 10	> 10	74	0.091	> 100	53	> 10	C[C@H]1Cn2c(nnc2C(F)(F)F)CN1C(=O)C[C@H](N)Cc1cc(F)c(F)cc1F
> 10	> 10	39	0.116	> 100	> 100	> 10	N[C@@H](CC(=O)N1CCn2c(nnc2C(F)(F)F)[C@@H]1Cc1ccc(F)cc1)Cc1cc(F)c(F)cc1F
> 10	> 10	> 100	0.09	40	> 100	> 10	N[C@@H](CC(=O)N1CCn2c(nnc2C(F)(F)F)C1C(O)c1ccc(F)cc1)Cc1cc(F)c(F)cc1F (stereo in doubt; 47c)
> 10	> 10	87	0.14	> 100	> 100	> 10	N[C@@H](CC(=O)N1CCn2c(nnc2C(F)(F)F)C1Cc1ccccc1)Cc1cc(F)c(F)cc1F (single isomer, unassigned)
> 10	> 10	62	0.032	72	> 100	> 10	C=CCC1c2nnc(C(F)(F)F)n2CCN1C(=O)C[C@H](N)Cc1cc(F)c(F)cc1F (stereo in doubt; 40b)
> 10						> 10	N[C@@H](CC(=O)N1CCNCC1)Cc1ccccc1F
